In data set [1] the test system is MCF7. As to the kind of experiment: Cytotoxicity against human MCF7 cells assessed as reduction in cell viability incubated for 24 hrs by MTT assay. Type of data set: functional, cell-based. The settings on record: MCF7, 24 h. A general note: Formazan colour is commonly taken as a measure of viable cells.
The target in data set [2] is T1, Tubulin (Homo sapiens) (UniProt P68371+Q9H4B7+P0DPH7+P68366+Q13509+Q71U36+P04350+Q3ZCM7+P07437+P68363+Q9BQE3+Q6PEY2+Q13885+Q9BVA1+Q9BUF5). Description: Binding affinity to tubulin (unknown origin) assessed as association constant by SPR analysis. Type of data set: protein-complex assay. Background: Surface plasmon resonance follows binding to a sensor surface in real time, without labels.

Data set [3] deals with Tubulin. Description: Binding affinity to tubulin (unknown origin) assessed as binding constant by SPR analysis. Type of data set: protein-complex assay, Homo sapiens.
The target in data set [4] is Tubulin. As to the kind of experiment: Binding affinity to tubulin (unknown origin) assessed as binding constant by ITC analysis. Type of data set: protein-complex assay, Homo sapiens. (In ITC the heat of successive injections is recorded.)
The target of data set [5] is T1, Tubulin (Homo sapiens). As to the kind of experiment: Inhibition of tubulin polymerization (unknown origin) at 10 uM by turbidity assay. Type of data set: protein-complex assay.
Data set [6] deals with T1, Tubulin (Homo sapiens). As to the kind of experiment: Inhibition of tubulin polymerization (unknown origin) at 10 uM by DAPI staining based assay. Type of data set: protein-complex assay.
For data set [7], the target named is Tubulin. As to the kind of experiment: Binding affinity to tubulin (unknown origin) assessed as binding constant by tryptophan quenching analysis. It is filed as protein-complex assay, Homo sapiens.
The target of data set [8] is T1, Tubulin (Homo sapiens). Description: Binding affinity to microtubule in human MCF7 cells at 20 uM after 2 hrs by Hoechst 33258 staining based fluorescence microscopy analysis. Type of data set: cell-based.
Data set [9] concerns the target T1, Tubulin (Homo sapiens). As to the kind of experiment: Induction of microtubule depolymerization in human MCF7 cells. Type of data set: cell-based.
Data set [10] can be described thus: Drug uptake in human MCF7 cells at 4 uM incubated for 24 hrs by flow cytometry analysis. It is filed as ADME, cell-based. The settings on record: mcf7, 24 h.
Data set [11] concerns MCF7. As to the kind of experiment: Drug uptake in human MCF7 cells at 4 uM incubated for 24 hrs by fluorescence microscopic analysis. Type of data set: functional, cell-based.
For data set [12], the system named is MCF7. As to the kind of experiment: Induction of apoptosis in human MCF7 cells assessed as viable cells by annexin V FITC and propidium iodide staining based flow cytometry (reference value: 100 %). It is filed as functional.
Data set [13] deals with MCF7. As to the kind of experiment: Induction of apoptosis in human MCF7 cells assessed as early apoptotic cells by annexin V FITC and propidium iodide staining based flow cytometry (reference value: 0 %). Type of data set: functional.
The subject of data set [14] is MCF7. Description: Induction of apoptosis in human MCF7 cells assessed as late apoptotic cells by annexin V FITC and propidium iodide staining based flow cytometry (reference value: 0 %). It is filed as functional.
For data set [15], the system named is MCF7. Description: Induction of apoptosis in human MCF7 cells assessed as necrotic cells by annexin V FITC and propidium iodide staining based flow cytometry (reference value: 0 %). Type of data set: functional.
Data set [16] concerns MCF7. Description: Induction of cell cycle arrest in human MCF7 cells assessed as accumulation of cells at G2/M phase. It is filed as functional, cell-based.
Data set [17] deals with MCF7. As to the kind of experiment: Induction of apoptosis in human MCF7 cells assessed as upregulation of p53 protein expression by Western blot analysis. Type of data set: functional, cell-based.
Data set [18] has as its system MCF7. Description: Induction of apoptosis in human MCF7 cells assessed as upregulation of p21 protein expression by Western blot analysis. Type of data set: functional, cell-based.
For data set [19], the system named is MCF7. As to the kind of experiment: Induction of apoptosis in human MCF7 cells assessed as upregulation of Mad2 protein expression by Western blot analysis. Type of data set: functional, cell-based.
For data set [20], the system named is MCF7. As to the kind of experiment: Induction of apoptosis in human MCF7 cells assessed as upregulation of BubR1 protein expression by Western blot analysis. It is filed as functional, cell-based.
In data set [21] the test system is MCF7. Description: Antitumor activity in human MCF7 cells cultured as 3D spheroids assessed as decrease in spheroid volume at 4 uM measured up to 7 days by inverted microscopic analysis. It is filed as functional, cell-based. The following applies: time <= 7.0 day.
Data set [22] is described as follows: Metabolic stability in human plasma at 200 uM incubated for 24 hrs by MALDI-MS analysis. Type of data set: ADME, cell-free.
The subject of data set [23] is B16-F10. Description: Antitumor activity against mouse B16-F10 cells implanted in C57BL/6J mouse assessed as reduction in tumor size at 5 mg/kg, ip administered for 14 days by caliper method. Type of data set: functional, organism-based. The settings on record: time 14.0 day.
Data set [24] is described as follows: Toxicity in C57BL/6J mouse implanted with B16F10 cells assessed as change in body weight at 5 mg/kg, ip administered for 14 days. The following applies: in vivo, 336 h, time 14 day. Type of data set: organism-based, B16-F10.
The test system of data set [25] is B16-F10. As to the kind of experiment: Antitumor activity against mouse B16F10 cells implanted in C57BL/6J mouse assessed as tumor cell damage at 5 mg/kg, ip administered for 14 days by caliper method. Type of data set: functional, organism-based. The settings on record: time 14.0 day.
Data set [26] deals with B16-F10. As to the kind of experiment: Antitumor activity against mouse B16F10 cells implanted in C57BL/6J mouse assessed as tumor muscle damage at 5 mg/kg, ip administered for 14 days by caliper method. Type of data set: functional, organism-based. The following applies: time 14.0 day.
In data set [27] the test system is B16-F10. Description: Antitumor activity against mouse B16F10 cells implanted in C57BL/6J mouse assessed as blood vessels damage at 5 mg/kg, ip administered for 14 days by caliper method. Type of data set: functional, organism-based. The following applies: time 14.0 day.

Structures are written as SMILES. Calls of active or inactive are those of the source. The calls are words filed in the database; no cut-off is given here. Numbered stars: 1 amine (or outer) side, 2 acyl side, 3 side chain; on linkers, the order of the positions; unused ones are H or OH. Bridge positions count the residues as written; N and C are the ends. Square brackets hold non-standard residues; d marks the D form. Peptide text beside a SMILES is read from it. Nle(6-ylidene) = O=C([C@H](CCCC=[*:3])N[*:1])[*:2]; Phe(4-Br) = N[C@@H](Cc1ccc(Br)cc1)C(=O)O; Phe(4-Cl) = N[C@@H](Cc1ccc(Cl)cc1)C(=O)O; Phe(4-F) = N[C@@H](Cc1ccc(F)cc1)C(=O)O; Phe(4-I) = N[C@@H](Cc1ccc(I)cc1)C(=O)O

For orientation: IC50 means the point on the concentration scale where inhibition reaches its midpoint. The term Kd denotes a measure of binding affinity in units of concentration.

In the case of `CC(=O)N[C@@H](Cc1ccccc1)C(=O)N[C@@H](CCCNC(=N)N)C(=O)N[C@@H](CCCNC(=N)N)C(=O)N[C@@H](CCCCN)C(=O)N[C@@H](C)C(=O)N[C@@H](Cc1ccc(Br)cc1)C(=O)N[C@H]1CCC/C=C\CCC[C@@H](C(=O)NCC(=O)O)NC(=O)[C@H](Cc2ccc(O)cc2)NC(=O)[C@H](Cc2c[nH]c3ccccc23)NC(=O)[C@H](Cc2cnc[nH]2)NC1=O` (Ac-FRRKA[Phe(4-Br)][Nle(6-ylidene)]HWY[Nle(6-ylidene)]G-OH; staple (Z) 7-11), the IC50 in data set [1] was 33.8 µM. In data set [2], the Ka is 1.9 10^4/M/s. Moreover, in [3], the equilibrium dissociation constant (Kd) is 4 µM.
The corresponding values for `CC(=O)N[C@@H](Cc1ccccc1)C(=O)N[C@@H](CCCNC(=N)N)C(=O)N[C@@H](CCCNC(=N)N)C(=O)N[C@@H](CCCCN)C(=O)N[C@@H](C)C(=O)N[C@@H](Cc1ccc(Cl)cc1)C(=O)N[C@H]1CCC/C=C\CCC[C@@H](C(=O)NCC(=O)O)NC(=O)[C@H](Cc2ccc(O)cc2)NC(=O)[C@H](Cc2c[nH]c3ccccc23)NC(=O)[C@H](Cc2cnc[nH]2)NC1=O` (Ac-FRRKA[Phe(4-Cl)][Nle(6-ylidene)]HWY[Nle(6-ylidene)]G-OH; staple (Z) 7-11) are 18.7 µM, 2.05 10^4/M/s and 3.3 µM.
For the compound `CC(=O)N[C@@H](Cc1ccccc1)C(=O)N[C@@H](CCCNC(=N)N)C(=O)N[C@@H](CCCNC(=N)N)C(=O)N[C@@H](CCCCN)C(=O)N[C@@H](C)C(=O)N[C@@H](Cc1ccc(F)cc1)C(=O)N[C@H]1CCC/C=C\CCC[C@@H](C(=O)NCC(=O)O)NC(=O)[C@H](Cc2ccc(O)cc2)NC(=O)[C@H](Cc2c[nH]c3ccccc23)NC(=O)[C@H](Cc2c[nH]cn2)NC1=O` (Ac-FRRKA[Phe(4-F)][Nle(6-ylidene)]HWY[Nle(6-ylidene)]G-OH; staple (Z) 7-11), the 50% inhibitory concentration (IC50) in data set [1] worked out at 3.71 µM. Also, the Ka in data set [2] was 2.14 10^4/M/s; in data set [4], 45200 M⁻¹; in [7], 46300 M⁻¹. For the same compound, the Kd in [3] stood at 3.6 µM. For the same compound, the inhibition result in [5] and in [6] was “Active” in each case. The result in data set [8], in data set [9], in data set [11], in [16], in [17] and in data set [18] was Active. In addition, the outcome in [19], in data set [20], in data set [21], in data set [23], in [25] and in data set [26] was Active. The result in data set [27] was Active. For the same compound, in [10], the Drug uptake entry is given as “Active”. Further, the Activity is 12.2% in data set [12]; 23.5% in data set [13]; 58% in [14]; 6.3% in data set [15]; “Non-Toxic” in data set [24]. Moreover, in data set [22], the Stability result is reported as “Stable”.
On to `CC(=O)N[C@@H](Cc1ccccc1)C(=O)N[C@@H](CCCNC(=N)N)C(=O)N[C@@H](CCCNC(=N)N)C(=O)N[C@@H](CCCCN)C(=O)N[C@@H](C)C(=O)N[C@@H](Cc1ccc(I)cc1)C(=O)N[C@H]1CCC/C=C\CCC[C@@H](C(=O)NCC(=O)O)NC(=O)[C@H](Cc2ccc(O)cc2)NC(=O)[C@H](Cc2c[nH]c3ccccc23)NC(=O)[C@H](Cc2cnc[nH]2)NC1=O` (Ac-FRRKA[Phe(4-I)][Nle(6-ylidene)]HWY[Nle(6-ylidene)]G-OH; staple (Z) 7-11), for which the 50% inhibitory concentration (IC50) in [1] came to 52.3 µM. In addition, the Kd in [3] is 4.1 µM.
Regarding `CC(C)C[C@H](NC(=O)[C@H](Cc1ccccc1)NC(=O)[C@H](C)NC(=O)[C@H](CCCCN)NC(=O)[C@H](CCCNC(=N)N)NC(=O)[C@H](CCCNC(=N)N)NC(=O)[C@@H](N)Cc1ccccc1)C(=O)N[C@@H](Cc1c[nH]cn1)C(=O)N[C@@H](Cc1c[nH]c2ccccc12)C(=O)N[C@@H](Cc1ccc(O)cc1)C(=O)N[C@H](C(=O)NCC(=O)O)[C@@H](C)O` (H-FRRKAFLHWYTG-OH), the half-maximal inhibitory concentration (IC50) in data set [1] was 272 µM. The Stability entry in data set [22] is reported as “Unstable”.
Turning to `C[C@H](NC(=O)[C@H](CCCCN)NC(=O)[C@H](CCCNC(=N)N)NC(=O)[C@H](CCCNC(=N)N)NC(=O)[C@@H](N)Cc1ccccc1)C(=O)N[C@@H](Cc1ccccc1)C(=O)N[C@H]1CCC/C=C\CCC[C@@H](C(=O)NCC(=O)O)NC(=O)[C@H](Cc2ccc(O)cc2)NC(=O)[C@H](Cc2c[nH]c3ccccc23)NC(=O)[C@H](Cc2c[nH]cn2)NC1=O` (H-FRRKAF[Nle(6-ylidene)]HWY[Nle(6-ylidene)]G-OH; staple (Z) 7-11), the 50% inhibitory concentration (IC50) in data set [1] was determined as 37.2 µM. The Ka in data set [2] was 1.43 10^4/M/s; in data set [4], 10500 M⁻¹. In addition, in [3], the equilibrium dissociation constant (Kd) came to 7 µM. Besides, the result in data set [9], in [11], in [16], in data set [17], in data set [18] and in [19] was Active. For the same compound, the result in data set [20] was Active. Also, the Drug uptake entry in data set [10] was “Active”. Further, the Activity in data set [12] is 31.8%; in data set [13], 0.5%; in [14], 24.2%; in data set [15] it was 43.6%. For the same compound, the Stability result in data set [22] is “Stable”.

The values are drawn from ChEMBL document CHEMBL5108073, “Evolution of Potential Antimitotic Stapled Peptides from Multiple Helical Peptide Stretches of the Tubulin Heterodimer Interface: Helix-Mimicking Stapled Peptide Tubulin Inhibitors” (J Med Chem, 2022).
